Literature values, collected in patent publication US20220160797A1 (North Carolina State University, priority 2019, published 2022).

System: L. acidophilus NCFM
Settings: grown on esculin compared to lactose

O=c1ccc2cc(O[C@@H]3O[C@H](CO)[C@@H](O)[C@H](O)[C@H]3O)c(O)cc2o1 [esculin]
up-regulation of gene lba0753: 2.3 log2
